Measured values published in the OligoGym collection.
These antisense oligonucleotides have a phosphorothioate backbone; sugars and methylation of C are not fully specified.

Assays:
Conditions in all cases: ASO
TNF = target: TNF
BIRC3 = target: BIRC3
VCAM1 = target: VCAM1
Further: test concentration or dose not given here.

Row | Sequence | remaining target (mRNA or protein) (fraction of control) (TNF) | remaining target (mRNA or protein) (fraction of control) (BIRC3) | remaining target (mRNA or protein) (fraction of control) (VCAM1)
1 | GTCGCCTCACAGAGCAATGAC | ≥ 1 | – | –
2 | TGTGTGACTCATGAAGCT | – | 0.77 | –
3 | GCTCTGCTGTCAAGTGTT | – | 0.43 | –
4 | CAGTCTGGGAAGCTCTGAGGG | ≥ 1 | – | –
5 | GATCATGCTTTCCGTGCTCAT | 0.94 | – | –
6 | GCCTGAAGACAGCTTCCCAAC | 0.24 | – | –
7 | CCGTGCTCATGGTGTCCTTTC | 0.51 | – | –
8 | TGGCTTGAACTTGACGGA | – | ≥ 1 | –
9 | GCTGAGCAGGTCCCCCTTCTC | 0.8 | – | –
10 | AACATCTCCGTACCATGCCA | – | – | 0.25
11 | GCAATCTTGCTATGGCATAA | – | – | 0.48
12 | TTAAGGAAGAAATACACA | – | ≥ 1 | –
13 | CCTGAAGCCAGTGAGG | – | – | 0.61
14 | GTAAGTAATCTGGCATTT | – | ≥ 1 | –
15 | ACCATATTTCACTGATTC | – | 0.3 | –
16 | GGGAAATTCCCAGGACCAGGG | ≥ 1 | – | –
17 | CAGCCTGCCTTACTGTGGGC | – | – | 0.67
18 | TTTCTCTCTCCTCTTCCC | – | 0.9 | –
19 | CCTCTTTCCCTTACCCTCCTG | 0.1 | – | –
20 | TATCTCCCTCGTCTCCCATCT | 0.27 | – | –
21 | AACCCAGTGCTCCCTTTGCT | – | – | 0.21
22 | CCTCGCTGAGTTCTGCCGGCT | 0.99 | – | –
23 | CACGAGGCCACCACTCATCTC | – | – | 0.05

Row | Sequence | remaining target (mRNA or protein) (fraction of control) (TNF) | remaining target (mRNA or protein) (fraction of control) (BIRC3) | remaining target (mRNA or protein) (fraction of control) (VCAM1)
24 | CCTGGGAGGGTATTC | – | – | 0.39
25 | CTTCTCCAGGCTACTAGA | – | 0.5 | –
26 | GCCTGGGAGGGTATTCAGCT | – | – | 0.58
27 | CTGTGTGTCCTGTCTCCGCT | – | – | 0.27
28 | CCTCCAGTTCTCTC | – | – | 0.32
29 | CGACCATCTTCCCAGGCATTT | – | – | 0.2
30 | CGAGGCCACCACTC | – | – | 0.16
31 | AACCCTTATTTGTGTCCCACC | – | – | 0.09
32 | CAGTCACGGCTCCCGTGGG | 0.91 | – | –
33 | TGAACATATCAAGCATTAGC | – | – | 0.53
34 | TAGACGATAAAGGGGTCAGAG | ≥ 1 | – | –
35 | CATGTCCCTAAAATGTCA | – | ≥ 1 | –
36 | AATAATAAATAATAAATAAAT | ≥ 1 | – | –
37 | AGGCTCCTGTTTCCGGGGAGA | ≥ 1 | – | –
38 | GCAGCCTTGTCCCTTGAAGAG | 0.73 | – | –
39 | CAGATCAGGGAACTCCTC | – | – | 0.55
40 | TTCCCAACGCTGGGTCCTCCA | ≥ 1 | – | –
41 | AGGGAAGGAAGGAAGGAAGGG | ≥ 1 | – | –
42 | AACTCCTCCAGTTCTCTCATC | – | – | 0.12
43 | CTGAAATTTTGATTGAAT | – | 0.86 | –
44 | GTTTCCCCTCCATCTCCCTCC | 0.26 | – | –
45 | TGAAGTGTCTTGAAGCTG | – | ≥ 1 | –
46 | ACTGAAGACATTTTGAAT | – | 0.38 | –

Row | Sequence | remaining target (mRNA or protein) (fraction of control) (TNF) | remaining target (mRNA or protein) (fraction of control) (BIRC3) | remaining target (mRNA or protein) (fraction of control) (VCAM1)
47 | ATATAACACAGCTTCAGC | – | ≥ 1 | –
48 | TACAATTTCAATAATGCT | – | 0.62 | –
49 | TTGCTGTTCTCCCTCCTGGCT | 0.15 | – | –
50 | TTTGTGTCCCACCTG | – | – | 0.1
51 | CTAACTCAAAGGAGGAAA | – | ≥ 1 | –
52 | ACACTTACTGAGTGTGAGGGT | ≥ 1 | – | –
53 | AAGAAGGAGCACAATCTT | – | 0.3 | –
54 | GGTTCCAAAACCCTT | – | – | 0.42
55 | GGCACTCACCTCCTCCTTGTT | 0.94 | – | –
56 | GGTCTCCCTCCCCAACTCTCC | 0.18 | – | –
57 | CGTGATGAAGAAAATAGTGGTT | – | – | 0.49
58 | GCCTGGGAGGGTATTCAGCTC | – | – | 0.3
59 | CATCTCGATTTCTGG | – | – | 0.47
60 | CACAAGACCTAACTCAAA | – | 0.73 | –
61 | GGGATAGCTGGTAGTTTAG | ≥ 1 | – | –
62 | ATTTTAATTAGAAGCACT | – | ≥ 1 | –
63 | CCTGAAGCCAGTGAGGCCCG | – | – | 0.42
64 | CAAACGTGTTGGCGCTTT | – | 0.65 | –
65 | GGCATTTTAAGTTGCTGTCG | – | – | 0.34
66 | GCAGCATTAATCACAGGA | – | ≥ 1 | –
67 | AAACTTACCTACGACGTGGGC | ≥ 1 | – | –
68 | AACATCATGTTCTTGTTC | – | 0.91 | –
69 | AATTGTTCTTCCACTGGT | – | ≥ 1 | –
